Test results from patent US4151280A, “Pyrroloquinoxalines” (Roussel Uclaf, priority 1977, dated 1979).
Like-named read-outs stand apart in the source and are kept apart here.

Test system: passive cutaneous anaphylaxis
Assay: Passive cutaneous anaphylaxis (PCA) in rats;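 note: male rats, challenged with antigen plus Evans blue three days post sensitization, killed 30 min later, dorsal skin bluing graded on a five point scale, summed over four sites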
Type: in vivo
Conditions: dosed immediately prior to intravenous challenge, rats sensitized intradermally with anti-ovalbumen antiserum; for ED50: Rattus norvegicus
[1] = po, read-out: ED 50 p.o. (dose of drug giving 50% inhibition), p.o.
[2] = read-out: ED 50 i.v. (dose of drug giving 50% inhibition), i.v.

Experimental: Cutaneous anaphylaxis can be induced in rats by intradermal (ID) sensitization with antiserum followed three days later by systemic challenge with antigen. Evans blue dye injected with the antigen is used as a marker to assess the severity of the local response. […] Brown: Pergamon Press: --male rats weighing 180-220 grams are used in groups of seven.
Preparation of Antigen for Sensitization (Alum precipitated ovalbumen)
Wash 120 grams of Al(OH)3 in 140 ml of saline (use of a macerater facilitates mixing).
Centrifuge at 3,000 r.p.m. for about 10 minutes.
Resuspend the precipiate with 300 ml of albumen egg powder (1.3 mg/ml) in saline and allow to stand for 30 minutes.
Centrifuge at 3,000 r.p.m. for 10 minutes.
Weigh the wet precipitate and to each gram weight add 1 ml of saline. Store in refrigerator (Quantity sufficient for 60 rats for a 3 day sensitization program).
Preparation of Antiserum (anti-ovalbumen)
1 ml of the alum precipitated ovalbumen was injected subcutaneously into rats weighing 180-200 grams on days 0,2,4. The rats were bled on day 14 either by cardiac puncture or via the dorsal abdominal aorta. Equal quantities of serum from each animal were pooled and thoroughly mixed and 2 ml aliquots were stored at -20° C. in plastic tubes.
The animals were then left for a period of three days to develop sensitization.
The injections were speeded up by using an automatic 1 ml self-filling glass syringe. The "challenged" rats were killed after 30 minutes, usually pithed) and their skin on the dorsal surface was removed. The degree and area of blueing, proportional to the anaphylactic reaction was assessed on a five point scoring system.
Total scores for sites 1,2,3 and 4=X
2. mean value of X for each group=X

Cn1c(=O)c2cc(C(=O)O)cn2c2ccccc21 [Example 12, 5-methyl-4,5-dihydro-4-oxo-pyrrolo[1,2-a]quinoxaline-2-carboxylic acid]
ED50 [1]: 0.54 mg/kg | ED50 [2]: 0.089 mg/kg

CCn1c(=O)c2cc(C(=O)O)cn2c2ccccc21 [Example 14, 5-ethyl-4,5-dihydro-4-oxo-pyrrolo[1,2-a]quinoxaline-2-carboxylic acid]
ED50 [1]: 0.035 mg/kg | ED50 [2]: 0.026 mg/kg

O=C(O)c1cc2c(=O)n(C3CCCC3)c3ccccc3n2c1 [Example 20, 5-cyclopentyl-4,5-dihydro-4-oxo-pyrrolo[1,2-a]quinoxaline-2-carboxylic acid]
ED50 [2]: 0.37 mg/kg

CCCCn1c(=O)c2cc(C(=O)O)cn2c2cc(Cl)ccc21 [Example 21, 5-n-butyl-8-chloro-4,5-dihydro-4-oxo-pyrrolo[1,2-a]quinoxaline-2-carboxylic acid]
ED50 [1]: 0.114 mg/kg | ED50 [2]: 0.019 mg/kg

CCCCn1c(=O)c2cc(C(=O)O)cn2c2cc(Cl)c(Cl)cc21 [Example 22, 5-n-butyl-7,8-dichloro-4,5-dihydro-4-oxo-pyrrolo[1,2-a]quinoxaline-2-carboxylic acid]
ED50 [1]: 0.117 mg/kg | ED50 [2]: 0.014 mg/kg

CCCCCn1c(=O)c2cc(C(=O)O)cn2c2ccccc21 [Example 17, 5-n-pentyl-4,5-dihydro-4-oxo-pyrrolo[1,2-a]quinoxaline-2-carboxylic acid]
ED50 [1]: 0.31 mg/kg | ED50 [2]: 0.087 mg/kg

CCOC(=O)c1cc2c(=O)n(C)c3ccccc3n2c1 [Example 1, ethyl 5-methyl-4,5-dihydro-4-oxo-pyrrolo[1,2-a]quinoxaline-2-carboxylate]
ED50 [1]: 7 mg/kg

CCCn1c(=O)c2cc(C(=O)O)cn2c2ccccc21 [Example 15, 5-n-propyl-4,5-dihydro-4-oxo-pyrrolo[1,2-a]quinoxaline-2-carboxylic acid]
ED50 [1]: 0.032 mg/kg | ED50 [2]: 0.019 mg/kg

5-n-butyl-7-(and 8)-nitro-4,5-dihydro-4-oxo-pyrrolo[1,2-a]quinoxaline-2-carboxylic acid [23(c)]
ED 50 i.v. (dose of drug giving 50% inhibition) (i.v.): 0.025 mg/kg | ED 50 p.o. (dose of drug giving 50% inhibition) (p.o.): 0.26 mg/kg

CCn1c(=O)c2cc(C(=O)O)cn2c2cc(Cl)ccc21 [24(d), 8-chloro-5-ethyl-4,5-dihydro-4-oxo-pyrrolo[1,2-a]quinoxaline-2-carboxylic acid]
ED50 [1]: 0.29 mg/kg | ED50 [2]: 0.035 mg/kg

CCCCn1c(=O)c2cc(C(=O)O)cn2c2ccccc21 [Example 16, 5-n-butyl-4,5-dihydro-4-oxo-pyrrolo[1,2-a]quinoxaline-2-carboxylic acid]
ED50 [1]: 0.058 mg/kg | ED50 [2]: 0.019 mg/kg

CCCCn1c(=O)c2cc(C(=O)OCC)cn2c2ccccc21 [Example 5, ethyl 5-n-butyl-4,5-dihydro-4-oxo-pyrrolo[1,2-a]quinoxaline-2-carboxylate]
ED50 [1]: 4.1 mg/kg

CC(C)n1c(=O)c2cc(C(=O)O)cn2c2ccccc21 [Example 18, 5-isopropyl-4,5-dihydro-4-oxo-pyrrolo[1,2-a]quinoxaline-2-carboxylic acid]
ED50 [2]: 0.85 mg/kg

C=CCn1c(=O)c2cc(C(=O)O)cn2c2ccccc21 [Example 19, 5-allyl-4,5-dihydro-4-oxo-pyrrolo[1,2-a]quinoxaline-2-carboxylic acid]
ED50 [1]: 0.28 mg/kg | ED50 [2]: 0.035 mg/kg

O=C(O)c1cc2c(=O)n(-c3ccccc3)c3ccccc3n2c1 [Example 13, 5-phenyl-4,5-dihydro-4-oxo-pyrrolo[1,2-a]quinoxaline-2-carboxylic acid]
ED50 [1]: 19 mg/kg | ED50 [2]: 1.57 mg/kg
